# Source: article PMC4439194 (Biochimica et biophysica acta, 2014)
# Target: HmbR (Neisseria meningitidis, UniProt Q9JYA8)
# Test: UV-vis absorption and EPR of ferric heme-bound HmbR
# Assay type: binding
# Conditions: 500 mM imidazole, pH 7.4; sixth axial ligand of the bound ferric heme
compound,measurement,value
c1c[nH]cn1 [imidazole],UV-vis absorption and EPR of ferric heme-bound HmbR,change from pentacoordinate to hexacoordinate ligation upon addition of exogenous imidazole to ferric holoHmbR
